Reference: patent US20230257429A1, “PEPTIDE ADJUVANT FOR ITS THERAPEUTIC APPLICATIONS IN VIRAL AND TUMOUR VACCINE DEVELOPMENT AND CANCER IMMUNOTHERAPY AND AUTOIMMUNE DISEASE DIAGNOSIS AND TREATMENTS” (National University of Singapore, priority 2020, published 2023)
Entries after “also recorded” stand apart in the source; their conditions may differ.

Legend:
PBMC [1] = experiment: PBMC activation, TNFα and IL-1β ELISA; type: cell-based, human; conditions: for adjuvant (alarmin) activity compared with NCL-P2+G / adjuvant (alarmin) activity compared with NCL-P2: PBMC stimulated 24 hr; for adjuvant (alarmin) activity compared with NCL-P2+G: TNFα by ELISA; for adjuvant (alarmin) activity compared with NCL-P2: TNFα in media; for TNFα induction from PBMC by known CPPs / TNFα production from PBMC: 24 hr; for TNFα induction from PBMC by known CPPs: ELISA; for TNFα production from PBMC: recombinant protein coated on plates
Experimental: (§1) Buffy coat fractions were obtained from healthy blood donors at the Singapore Health Sciences Authority, with Institutional ethics approval, and PBMC were isolated using Ficoll-Paque (GE Healthcare). To isolate monocytes, PBMC were re-suspended to 1×10^7 cells/ml in the RPMI medium contained 5% (v/v) BCS and incubated for 1 hr in T75 flasks (20 ml/flask). Monocytes that adhered were harvested. To culture macrophages and DC [Cao, W., et al., Blood 107: 2777-2785, (2006), incorporated herein by reference], monocytes were resuspended to 1×10^6 cells/ml and cultured in 6-well plates (2 ml/well). Macrophages were cultured by adding M-CSF to 20 ng/ml and DC were cultured with 20 ng/ml GM-CSF and 40 ng/ml IL-4. M-CSF, GM-CSF and IL-4 were obtained from R&D Systems (Mineapolis, Minn.). Cells were cultured for 6 days with half of the media being replenished every two days.
Purified proteins in PBS (30 μg/ml) were coated in triplicates in 96-well plates (50 μl/well) for 12 hr and PBMC (3×10^6 cells/ml), monocytes (1×10^6 cells/ml), macrophages (0.5×10^6 cells/ml) or DC (0.5×10^6 cells/ml) were re-suspended in macrophage serum-free medium containing penicillin and streptomycin and cultured for 24 hr in these plates at 100 μl/well. Where TLR ligands were used to stimulate these cells, they were added to the media: LPS (500 ng/ml for DC and macrophages and 10 ng/ml for PMBC and monocytes, InvivoGen), flagellin (1 μg/ml, InvivoGen), lipoteichic acid (LTA, 10 μg/ml). Cell activation was determined by measuring TNFα and IL-1β in the culture media using ELISA kits (Invitrogen).

PBMC [2] = experiment: Peptide binding to and penetration of PBMC, flow cytometry; type: cell-based, human; conditions: for CPP activity compared with P2+G / CPP activity compared with NCL-P2: PBMC; for CPP activity compared with P2+G: 1 hr at 4° C. and 37° C., MFI; for CPP activity compared with NCL-P2: peptide 200 μg/ml; for CPP activity compared with NCL-P2 / intracellular pool / cell penetration (CPP activity) in PBMC: 1 hr at 4° C.; for intracellular pool / cell penetration (CPP activity) in PBMC: fixed/permeabilized, streptavidin-AF488
Experimental: PBMC re-suspended in 100 μl macrophage serum free media (3×10^6/ml) were incubated with different peptides (200 μg/ml). PBMC (100 μl) were incubated with the peptides for 1 hr at 37° C. or 4° C. Cells were washed twice in 2% FBS/PBS and incubated with streptavidin-AF488 and Zombie (NIR) Fixable viability stain-APC-Cy7 for 30 min at 4° C. Cells were then fixed with 1% PFA for 30 min at room temperature and analysed using the Fortessa analyser (BD). In some experiments, PBMC were, after incubation with peptides, incubated with Zombie (NIR) Fixable viability stain (APC-Cy7) for 30 min at 4° C. Cells were then fixed and permeabilized with BD CYTOFIX/CYTOPERM™ Kit for 20 min at 4° C., and then incubated with streptavidin-AF488 for 30 min at 4° C. In some experiments, PBMC were, after incubation with the peptides, stained with fluorescent mouse antibodies specific for monocytes (CD14/BV711), T cells (CD3/PerCP-Cy5-5) and B cells (CD19/Pacific blue). Cells were then stained with Zombie (NIR) Fixable viability stain-APC-Cy7 and streptavin-AF488, with or without membrane permeabilization. In these experiments, monocytes, T cells and B cells were separately gated to detect surface peptide binding and intracellular peptide penetration.

TLR2 = TLR2 (Homo sapiens, UniProt O60603); experiment: TLR2 binding assay (ELISA plate); parameters: purchased R&D Systems; conditions: for soluble protein binding to coated TLR2: TLR2 coated 2 μg/ml, protein 0-20 μg/ml, anti-HA detection; for TLR2 binding at the highest concentration tested: peptide 200 μg/ml
Chain of TLR2 (O60603 21-590 limits assumed): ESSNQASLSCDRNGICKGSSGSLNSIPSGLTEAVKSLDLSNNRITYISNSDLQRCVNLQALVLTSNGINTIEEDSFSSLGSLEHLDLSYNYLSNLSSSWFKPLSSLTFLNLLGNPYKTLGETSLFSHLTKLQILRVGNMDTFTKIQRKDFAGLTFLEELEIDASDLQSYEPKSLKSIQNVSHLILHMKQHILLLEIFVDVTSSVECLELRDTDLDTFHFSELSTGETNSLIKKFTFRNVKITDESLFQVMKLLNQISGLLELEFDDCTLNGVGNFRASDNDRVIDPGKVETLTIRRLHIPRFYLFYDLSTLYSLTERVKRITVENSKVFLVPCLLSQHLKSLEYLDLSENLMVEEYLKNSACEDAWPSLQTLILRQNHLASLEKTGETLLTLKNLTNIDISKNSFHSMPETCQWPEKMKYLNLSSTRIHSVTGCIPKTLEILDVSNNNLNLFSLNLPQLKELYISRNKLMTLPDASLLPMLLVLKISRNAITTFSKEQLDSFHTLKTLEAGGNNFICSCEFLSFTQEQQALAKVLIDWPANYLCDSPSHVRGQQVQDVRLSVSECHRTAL

monocytes = experiment: Monocyte activation, TNFα and IL-1β ELISA; type: cell-based, human; conditions: protein coated on plates, 24 hr, ELISA
Experimental: as §1
[…] Where TLR ligands were used to stimulate these cells, they were added to the media: LPS (500 ng/ml for DC and macrophages and 10 ng/ml for PMBC and monocytes, InvivoGen), flagellin (1 μg/ml, InvivoGen), lipoteichic acid (LTA, 10 μg/ml). Cell activation was determined by measuring TNFα and IL-1β in the culture media using ELISA kits (Invitrogen).

For “GGFGARGGARGARGGFGARGARGGFGARGGFRGARGA (NCL-P2+G(G/A))”, the “adjuvant (alarmin) activity compared with NCL-P2+G” value (shortened to “adjuvant … compared with NCL-P2+G”) (PBMC [1]) was “lost the alarmin activity” and the “CPP activity compared with P2+G” value (PBMC [2]) was “completely lost the CPP activity”.

For “GGFGGKGGGKGGKGGFGGKGKGGFGGKGGFKGGKGG (NCL-P2R/K)”, the “adjuvant (alarmin) activity compared with NCL-P2” value (PBMC [1]) was “lost CPP as well as alarmin activity”, the “adjuvant (alarmin) activity compared with NCL-P2” value (PBMC [1]; listed as R/K mutant of NCL-P2) was “lost its adjuvant activity” and the “adjuvant (alarmin) activity compared with NCL-P2” value (PBMC [1]; listed as SEQ ID NO: 20) was “completely abolished its adjuvant activity”. For the same molecule, the “CPP activity compared with NCL-P2” value (PBMC [2]) was “lost CPP as well as alarmin activity” and the “PBMC penetration at 37° C. or 4° C.” value (PBMC [2]; compared with NCL-P2) was “no longer penetrates PBMC”.

In the case of “GGFGGRGGGRGGRGGFGGRGGRGGFGGRGGFGGRGGRGG (NCL-P2+3G)”, the “adjuvant … compared with NCL-P2+G” value (PBMC [1]) is reported as “no further improvement in adjuvant activity and instead it slightly reduced the high adjuvant activity”, the “adjuvant (alarmin) activity compared with NCL-P2” value (PBMC [1]) is reported as “significantly higher alarmin activity” and the “CPP activity compared with NCL-P2” value (PBMC [2]) is reported as “slightly higher CPP activity”. For the same molecule, the “CPP activity compared with NCL-P2” value (PBMC [2]; listed as P2+3G) was “slightly increased their CPP activities”.

For “GGFGGRGGRGGFGGRGGRGGFGGRGGRGGFGGRGGRGG (NCL-P2+2G)”, the “adjuvant (alarmin) activity compared with NCL-P2” value (PBMC [1]) was “diminished rather than increased adjuvant activity; also recorded: slightly reduced alarmin activity”.

With “GGFGPRGGPRGPRGGFGPRGPRGGFGPRGGFRGPRGP (NCL-P2+G(G/P))” the “adjuvant … compared with NCL-P2+G” value (PBMC [1]) was “lost the alarmin activity” and the “CPP activity compared with P2+G” value (PBMC [2]) was “completely lost the CPP activity”.

In the case of “GGIGGRGGGRGGRGGIGGRGGRGGIGGRGGIRGGRGG (NCL-P2+G(F/I))”, the “adjuvant … compared with NCL-P2+G” value (PBMC [1]) is reported as “retained the alarmin activity”, the “CPP activity compared with P2+G” value (PBMC [2]) is reported as “acquired higher CPP activities” and the “CPP activity compared with NCL-P2” value (PBMC [2]) is reported as “slightly increased their CPP activities”.

For “GGLGGRGGGRGGRGGLGGRGGRGGLGGRGGLRGGRGG (GGLGRRGGGRGGRGGLGGRGGRGGLGGRGGLRGGRGG; NCL-P2+G(F/L))”, the “adjuvant … compared with NCL-P2+G” value (PBMC [1]) was “stronger alarmin activity than P2+G; also recorded: retained the alarmin activity”, the “CPP activity compared with P2+G” value (PBMC [2]) was “acquired higher CPP activities” and the “CPP activity compared with NCL-P2” value (PBMC [2]) was “slightly increased their CPP activities”.

“GGRGGRGGGRGGRGGRGGRGRGGRGGRGGRRGGRGG (NCL-P2F/R)” was tested, and the “adjuvant (alarmin) activity compared with NCL-P2” value (PBMC [1]) was “losing significant alarmin activity; also recorded: no significant alarmin activity”, the “adjuvant (alarmin) activity compared with NCL-P2” value (PBMC [1]; listed as P2F/R) was “reduced alarmin activity; also recorded: diminished alarmin activities” and the “adjuvant (alarmin) activity compared with NCL-P2” value (PBMC [1]; listed as SEQ ID NO: 21) was “substantially reduced its adjuvant activity”. For the same molecule, the “increase in CPP activity compared with NCL-P2” value (PBMC [2]) was “approx. 8 fold”, the “CPP activity compared with NCL-P2” value (PBMC [2]) was “gained substantial CPP activity; also recorded: have cell-penetrating activity” and the “CPP activity compared with NCL-P2” value (PBMC [2]; listed as P2F/R) was “strong CPP”.

“GGWGGRGGGRGGRGGWGGRGRGGWGGRGGWRGGRGG (NCL-P2F/W)” was tested, and the “adjuvant (alarmin) activity compared with NCL-P2” value (PBMC [1]) was “lost the alarmin activity; also recorded: no significant alarmin activity”, the “adjuvant (alarmin) activity compared with NCL-P2” value (PBMC [1]; listed as SEQ ID NO: 24) was “markedly diminished its adjuvant activity” and the “CPP activity compared with NCL-P2” value (PBMC [2]) was “retained the CPP activity; also recorded: have cell-penetrating activity”.

In the case of “GGYGGRGGGRGGRGGYGGRGRGGYGGRGGYRGGRGG (NCL-P2F/Y)”, the “adjuvant (alarmin) activity compared with NCL-P2” value (PBMC [1]) is reported as “alarmin activity was diminished; also recorded: no significant alarmin activity”, the “adjuvant (alarmin) activity compared with NCL-P2” value (PBMC [1]; listed as SEQ ID NO: 23) is reported as “markedly diminished its adjuvant activity” and the “CPP activity compared with NCL-P2” value (PBMC [2]) is reported as “gained significant CPP activity; also recorded: have cell-penetrating activity”.

In the case of “GWTLNSAGYLLGKINLKALAALAKKIL [CPP6, reference compound]”, the “TNFα induction from PBMC by known CPPs” value (PBMC [1]) is reported as “No significant TNFα”.

“MVTVLFRRLRIRRACGPPRVRV (CPP7) [reference compound]” was tested, and the “TNFα induction from PBMC by known CPPs” value (PBMC [1]) was “No significant TNFα”.

With “NCL(522)-HA: NCL-HA C-terminal deletion mutant of 522 residues which lacks the GAR/RGG region” the “soluble protein binding to coated TLR2” value (TLR2) was “not observed”.

For “NCL(649)-HA: NCL-HA C-terminal deletion mutant which lacks the GAR/RGG region”, the “soluble protein binding to coated TLR2” value (TLR2) was “not observed” and the “His-tagged TLR2 binding to coated protein” value (TLR2; protein coated 10 μg/ml, TLR2 0.375-6.0 μg/ml) was “no binding”.

In the case of “NCL(670)-HA: NCL-HA C-terminal deletion mutant of 670 residues with a residual GAR/RGG region”, the “TNFα and IL-1β production from monocytes” value (monocytes) is reported as “no longer stimulates monocytes; also recorded: apparently insufficient” and the “TLR2 binding to coated NCL-HA mutants (summary experiment)” value (TLR2; protein coated 10 μg/ml, TLR2 2 μg/ml) is reported as “weak binding”.

With “NCL-P4: peptide representing the N-terminal half of NCL-P6 (RGGFGGRGGG; NCL-P4)” the “intracellular pool / cell penetration (CPP activity) in PBMC” value (“intracellular pool / cell penetration” for short) (PBMC [2]) was “all lacked cell penetration” and the “TLR2 binding at the highest concentration tested” value (TLR2) was “no TLR2 binding”.

In the case of “NCL-P5: peptide representing the C-terminal half of NCL-P6 (RGGRGGFGGRG; NCL-P5)”, the “intracellular pool / cell penetration” value (PBMC [2]) is reported as “all lacked cell penetration” and the “TLR2 binding at the highest concentration tested” value (TLR2) is reported as “low level of TLR2 binding”.

With “NCL-P7: short peptide corresponding to the non-repetitive C-terminal end of the 48-residue GAR/RGG region (FRGGRGG; NCL-P7)” the “intracellular pool / cell penetration” value (PBMC [2]) was “all lacked cell penetration”.

For “RRRRNRTRRNRRRVRRRRRNRTRRNRRRVR (2xCPP4) [2×CPP4, reference compound]”, the “alarmin activity compared with CPP4” value (PBMC [1]; PBMC 24 hr, TNFα ELISA) was “Little increase in alarmin activity”.

B1: FBRL: recombinant fibrillarin with C-terminal HA tag (protein)
chain: MKPGFSPRGGGFGGRGGFGDRGGRGGRGGFGGGRGRGGGFRGRGRGGGGGGGGGGGGGRGGGGFHSGGNRGRGRGGKRGNQSGKNVMVEPHRHEGVFICRGKEDALVTKNLVPGESVYGEKRVSISEGDDKIEYRAWNPFRSKLAAAILGGVDQIHIKPGAKVLYLGAASGTTVSHVSDIVGPDGLVYAVEFSHRSGRDLINLAKKRTNIIPVIEDARHPHKYRMLIAMVDVIFADVAQPDQTRIVALNAHTFLRNGGHFVISIKANCIDSTASAEAVFASEVKKMQQENMKPQEQLTLEPYERDHAVVVGVYRPPPKVKN
modifications: C-terminal HA tag; FBRL
B1 was tested, and the “TNFα production from PBMC” value (PBMC [1]) was “strongly induced TNFα production”.

B2: GAR1-HA: recombinant GAR1 with a C-terminal HA tag (protein, UniProt Q9NY12 1-217, looked up)
H/ACA ribonucleoprotein …: MSFRGGGRGGFNRGGGGGGFNRGGSSNHFRGGGGGGGGGNFRGGGRGGFGRGGGRGGFNKGQDQGPPERVVLLGEFLHPCEDDIVCKCTTDENKVPYFNAPVYLENKEQIGKVDEIFGQLRDFYFSVKLSENMKASSFKKLQKFYIDPYKLLPLQRFLPRPPGEKGPPRGGGRGGRGGGRGGGGRGGGRGGGFRGGRGGGGGGFRGGRGGGFRGRGH
modifications: C-terminal HA tag
With B2 the “TNFα production from PBMC” value (PBMC [1]) was “indeed activated PBMC”.
